Results published in patent publication US11149031B2, “Substituted N-(3-fluoropropyl)-pyrrolidine compounds, processes for their preparation and therapeutic uses thereof” (SANOFI, priority 2016, dated 2021).

Assays:
[1] = target: His6-ERα298-554 WT (ERα ligand-binding domain) (Homo sapiens (Human), UniProt P03372); test: Test A: biochemical antagonist activity, LanthaScreen TR-FRET ERα coactivator assay, WT; conditions: protocol with 3 nM estradiol; read-out: Antagonism WT IC50
Experimental: (§1) Test A: Biochemical Antagonist Activity on Wild Type (WT) and Mutants
(§2) Estrogen Receptors Test A involves measuring the in vitro antagonist activity of the compounds of the invention on estrogen receptors.
(§3) The measurements of the antagonist activities were made using an estrogen receptor coactivator assay as described hereunder.
(§4) Antagonistic potency of compounds was evaluated using LanthaScreen® TR-FRET ERα Coactivator Assay (ThermoFisher) with modifications. […] The assay works in a homogeneous mix-and-read format. In a typical experiment, a 4 μL mixture of 0.5 nM His6-ERα298-554, 0.5 nM Tb-labeled His6 antibody, 250 nM PGC1a peptide, and 3 nM estradiol (or 10 nM estradiol) in 100 mM potassium phosphate, pH 7.4, 0.01% Tween-20, 0.02% NaN3, 5 mM DTT, was added to 40 nL test compound in DMSO and incubated overnight at room temperature. The TR-FRET 520:495 nm emission ratio was calculated and used to determine the IC50 value from a dose response curve fit to the 4-parameter logistic equation.

ERα in MCF7 cells = ERα in MCF7 cells (Homo sapiens (Human), UniProt P03372); test: Test C: estrogen receptor degradation activity, ERα in cell western assay in MCF7 cells; type: cell-based; conditions: for DC50: 4 hours post compound addition, ERα in cell western, read-out: Degradation IC50; for % Degradation at 3 μM: 4 hours, relative to fulvestrant
Chain of ERα in MCF7 cells (P03372 whole entry): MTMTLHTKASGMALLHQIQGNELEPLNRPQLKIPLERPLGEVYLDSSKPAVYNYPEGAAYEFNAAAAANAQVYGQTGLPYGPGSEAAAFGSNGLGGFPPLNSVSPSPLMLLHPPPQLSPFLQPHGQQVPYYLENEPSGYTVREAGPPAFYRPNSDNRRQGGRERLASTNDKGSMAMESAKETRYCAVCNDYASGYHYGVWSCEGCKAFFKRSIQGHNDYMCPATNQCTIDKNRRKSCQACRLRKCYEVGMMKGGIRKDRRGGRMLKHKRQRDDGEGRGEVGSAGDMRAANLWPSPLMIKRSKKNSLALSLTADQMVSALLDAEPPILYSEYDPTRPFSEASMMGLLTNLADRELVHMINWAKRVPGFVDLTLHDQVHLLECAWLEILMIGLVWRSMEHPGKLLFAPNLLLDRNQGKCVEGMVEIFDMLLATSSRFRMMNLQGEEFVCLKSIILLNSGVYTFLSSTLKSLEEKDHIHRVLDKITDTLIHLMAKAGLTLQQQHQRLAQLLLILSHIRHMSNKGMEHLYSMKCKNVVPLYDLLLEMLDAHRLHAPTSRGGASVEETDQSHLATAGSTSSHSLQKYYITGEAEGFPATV
Experimental: Test C: Estrogen Receptor Degradation Activity
Test C involves measuring the in vitro degradation activity of the compounds of the invention.
The measurements of the degradation activities were made using abreast cancer cell ERα in cell western assay as described hereunder.
MCF7 cells (ATCC) were seeded in 384 wells microplate (collagen coated) at concentration of >9990 cells/30 μL per well in red phenol free MEM alpha medium (invitrogen) containing 5% charcoal dextran striped FBS. The following day, 9 points serial 1:5 dilution of each compound were added to the cells in 2.5 μL at final concentrations ranging from 3-0.000018 μM or 0.1 μM for fulvestrant (using as positive control). At 4 hours post compounds addition the cells were fixed by adding 25 μL of formalin (final concentration 5% formalin containing 0.1% triton) for 10 minutes at room temperature and then washed twice with PBS. Then, 50 μL of LI-COR blocking buffer containing 0.1% Triton was added to plate for 30 minutes at room temperature. LI-COR blocking buffer was removed and cells were incubated overnight at cold room with 50 μL anti-ER rabbit monoclonal antibody (Thermo scientific MA1-39540) diluted at 1:>999 in LI-COR blocking buffer containing 0.1% tween-20. Wells which were treated with blocking but no antibody were used as background control. Wells were washed twice with PBS (0.1% tween-20) and incubated at 37° C. for 60 minutes in LI-COR (0.1% tween-20) containing goat anti-rabbit antibody Alexa 488 (1:>999) and Syto-64 a DNA dye (2 μM final concentration). Cells were then washed 3 times in PBS and scanned in ACUMEN explorer (TTP-Labtech). Integrated intensities in the green fluorescence and red fluorescence were measured to determine the levels of ERα and DNA respectively.

[2] = target: His6-ERα298-554 D538G mutant (ERα ligand-binding domain) (Homo sapiens (Human), UniProt P03372, D538G); test: Test A: biochemical antagonist activity, LanthaScreen TR-FRET ERα coactivator assay, D538G mutant; conditions: protocol with 3 nM estradiol; read-out: Antagonism D538G IC50
Chain of His6-ERα298-554 D538G mutant (ERα ligand-binding domain) (P03372 298-554 D538G): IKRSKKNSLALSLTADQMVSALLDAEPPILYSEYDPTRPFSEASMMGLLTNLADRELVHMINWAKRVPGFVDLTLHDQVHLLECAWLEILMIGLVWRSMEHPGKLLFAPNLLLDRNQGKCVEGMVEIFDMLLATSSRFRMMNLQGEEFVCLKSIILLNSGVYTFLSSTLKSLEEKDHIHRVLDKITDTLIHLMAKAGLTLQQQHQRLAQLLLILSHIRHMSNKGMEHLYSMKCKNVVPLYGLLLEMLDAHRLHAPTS
Experimental: as §1, §2, §3, §4

[3] = target: His6-ERα298-554 Y537S mutant (ERα ligand-binding domain) (Homo sapiens (Human), UniProt P03372, Y537S); test: Test A: biochemical antagonist activity, LanthaScreen TR-FRET ERα coactivator assay, Y537S mutant; conditions: protocol with 3 nM estradiol; read-out: Antagonism Y537S IC50
Chain of His6-ERα298-554 Y537S mutant (ERα ligand-binding domain) (P03372 298-554 Y537S): as the sequence (P03372 298-554 D538G) above, with Y240S, G241D counted along it
Experimental: as §1, §2, §3, §4

Chain of His6-ERα298-554 WT (ERα ligand-binding domain) (P03372 298-554): as the sequence (P03372 298-554 D538G) above, with G241D counted along it

For `Oc1ccc2c(c1)C(c1ccc(O[C@H]3CCN(CCCF)C3)cc1)=C(c1ccncc1F)CC2` [Example 1, 8-[4-[(3S)-1-(3-fluoropropyl)pyrrolidin-3-yl]oxyphenyl]-7-(3-fluoro-4-pyridyl)-5,6-dihydronaphthalen-2-ol], the IC50 [1] was 460 nM, the DC50 (ERα in MCF7 cells) was 34 nM and the “% Degradation at 3 μM” value (ERα in MCF7 cells) was 84%.
In the case of `Oc1ccc2c(c1)C(c1ccc(O[C@H]3CCN(CCCF)C3)cc1)=C(C1=CCOCC1)CC2` [Example 3, 7-(3,6-dihydro-2H-pyran-4-yl)-8-[4-[(3S)-1-(3-fluoropropyl)pyrrolidin-3-yl]oxyphenyl]-5,6-dihydronaphthalen-2-ol], the IC50 [1] is reported as 1510 nM, the DC50 (ERα in MCF7 cells) is reported as 85 nM and the “% Degradation at 3 μM” value (ERα in MCF7 cells) is reported as 80%.
In the case of `Oc1ccc2c(c1)C(c1ccc(O[C@H]3CCN(CCCF)C3)cc1)=C(c1ccc(F)cc1Cl)CC2` [Example 4, 7-(2-chloro-4-fluoro-phenyl)-8-[4-[(3S)-1-(3-fluoropropyl)pyrrolidin-3-yl]oxyphenyl]-5,6-dihydronaphthalen-2-ol], the IC50 [1] is reported as 284 nM, the DC50 (ERα in MCF7 cells) is reported as 12 nM and the “% Degradation at 3 μM” value (ERα in MCF7 cells) is reported as 87%.
With `Oc1ccc2c(c1)C(c1ccc(O[C@H]3CCN(CCCF)C3)cc1)=C(c1ccc3[nH]ccc3c1)CC2` [Example 5, 8-[4-[(3S)-1-(3-fluoropropyl)pyrrolidin-3-yl]oxyphenyl]-7-(1H-indol-5-yl)-5,6-dihydronaphthalen-2-ol] the IC50 [1] was 28 nM, the IC50 [2] was 209 nM and the IC50 [3] was 72 nM. The DC50 (ERα in MCF7 cells) was 0.5 nM and the “% Degradation at 3 μM” value (ERα in MCF7 cells) was 81%.
In the case of `Oc1ccc(C2=C(c3ccc(O[C@H]4CCN(CCCF)C4)cc3)c3cc(O)ccc3CC2)c(F)c1` [Example 6, 7-(2-fluoro-4-hydroxy-phenyl)-8-[4-[(3S)-1-(3-fluoropropyl)pyrrolidin-3-yl]oxyphenyl]-5,6-dihydronaphthalen-2-ol], the IC50 [1] is reported as 2 nM, the IC50 [2] is reported as 13 nM and the IC50 [3] is reported as 8 nM. For the same molecule, the DC50 (ERα in MCF7 cells) was 0.2 nM and the “% Degradation at 3 μM” value (ERα in MCF7 cells) was 84%.
For `Oc1ccc2c(c1)SCC(c1ccc3[nH]ccc3c1)=C2c1ccc(O[C@H]2CCN(CCCF)C2)cc1` [Example 19, 4-[4-[(3S)-1-(3-fluoropropyl)pyrrolidin-3-yl]oxyphenyl]-3-(1H-indol-5-yl)-2H-thiochromen-7-ol], the IC50 [1] was 7 nM, the IC50 [2] was 23 nM and the IC50 [3] was 11 nM. For the same molecule, the DC50 (ERα in MCF7 cells) was 3 nM and the “% Degradation at 3 μM” value (ERα in MCF7 cells) was 78%.
`Oc1ccc2c(c1)SCC(c1ccc3c(c1)CCN3)=C2c1ccc(O[C@H]2CCN(CCCF)C2)cc1` [Example 20, 4-[4-[(3S)-1-(3-fluoropropyl)pyrrolidin-3-yl]oxyphenyl]-3-indolin-5-yl-2H-thiochromen-7-ol] was tested, and the IC50 [1] was 15 nM, the IC50 [2] was 46 nM and the IC50 [3] was 21 nM. The DC50 (ERα in MCF7 cells) was 3 nM and the “% Degradation at 3 μM” value (ERα in MCF7 cells) was 86%.
`Oc1ccc2c(c1)SCC(c1ccc(Cl)cc1Cl)=C2c1ccc(O[C@H]2CCN(CCCF)C2)cc1` [Example 21, 3-(2,4-dichlorophenyl)-4-[4-[(3S)-1-(3-fluoropropyl)pyrrolidin-3-yl]oxyphenyl]-2H-thiochromen-7-ol] was tested, and the IC50 [1] was 9 nM, the IC50 [2] was 47 nM and the IC50 [3] was 19 nM. For the same molecule, the DC50 (ERα in MCF7 cells) was 3 nM and the “% Degradation at 3 μM” value (ERα in MCF7 cells) was 92%.
In the case of `Oc1ccc2c(c1)SCC(c1ccc(F)cc1Cl)=C2c1ccc(O[C@H]2CCN(CCCF)C2)cc1` [Example 22, 3-(2-chloro-4-fluoro-phenyl)-4-[4-[(3S)-1-(3-fluoropropyl)pyrrolidin-3-yl]oxyphenyl]-2H-thiochromen-7-ol], the IC50 [1] is reported as 6 nM, the IC50 [2] is reported as 27 nM and the IC50 [3] is reported as 9 nM. The DC50 (ERα in MCF7 cells) was 1 nM and the “% Degradation at 3 μM” value (ERα in MCF7 cells) was 95%.
Work on `Oc1cccc(C2=C(c3ccc(O[C@H]4CCN(CCCF)C4)cc3)c3ccc(O)cc3OCC2)c1` [Example 91, 5-[4-[(3S)-1-(3-fluoropropyl)pyrrolidin-3-yl]oxyphenyl]-4-(3-hydroxyphenyl)-2,3-dihydro-1-benzoxepin-8-ol] yielded an IC50 [1] of 2 nM, an IC50 [2] of 10 nM and an IC50 [3] of 6 nM. The DC50 (ERα in MCF7 cells) was 0.4 nM and the “% Degradation at 3 μM” value (ERα in MCF7 cells) was 91%.
Work on `Oc1ccc2c(c1)OCCC(c1ccc(F)cc1Cl)=C2c1ccc(O[C@H]2CCN(CCCF)C2)cc1` [Example 92, 4-(2-chloro-4-fluoro-phenyl)-5-[4-[(3S)-1-(3-fluoropropyl)pyrrolidin-3-yl]oxyphenyl]-2,3-dihydro-1-benzoxepin-8-ol] yielded an IC50 [1] of 7 nM, an IC50 [2] of 59 nM and an IC50 [3] of 22 nM. The DC50 (ERα in MCF7 cells) was 0.5 nM and the “% Degradation at 3 μM” value (ERα in MCF7 cells) was 96%.
Work on `Oc1ccc2c(c1)OCCC(c1ccc3[nH]ccc3c1)=C2c1ccc(O[C@H]2CCN(CCCF)C2)cc1` [Example 93, 5-[4-[(3S)-1-(3-fluoropropyl)pyrrolidin-3-yl]oxyphenyl]-4-(1H-indol-5-yl)-2,3-dihydro-1-benzoxepin-8-ol] yielded an IC50 [1] of 8 nM, an IC50 [2] of 59 nM and an IC50 [3] of 26 nM. For the same molecule, the DC50 (ERα in MCF7 cells) was 0.4 nM and the “% Degradation at 3 μM” value (ERα in MCF7 cells) was 87%.
`Oc1ccc(C2=C(c3ccc(O[C@H]4CCN(CCCF)C4)cc3)c3ccc(O)cc3OCC2)c(F)c1` [Example 94, 4-(2-fluoro-4-hydroxy-phenyl)-5-[4-[(3S)-1-(3-fluoropropyl)pyrrolidin-3-yl]oxyphenyl]-2,3-dihydro-1-benzoxepin-8-ol] gave an IC50 [1] of 2 nM, an IC50 [2] of 10 nM and an IC50 [3] of 6 nM. The DC50 (ERα in MCF7 cells) was 0.2 nM and the “% Degradation at 3 μM” value (ERα in MCF7 cells) was 87%.
In the case of `Oc1ccc2c(c1)OCCC(c1cccc(F)c1Cl)=C2c1ccc(O[C@H]2CCN(CCCF)C2)cc1` [Example 95, 4-(2-chloro-3-fluoro-phenyl)-5-[4-[(3S)-1-(3-fluoropropyl)pyrrolidin-3-yl]oxyphenyl]-2,3-dihydro-1-benzoxepin-8-ol], the IC50 [1] is reported as 6 nM, the IC50 [2] is reported as 43 nM and the IC50 [3] is reported as 20 nM. The DC50 (ERα in MCF7 cells) was 0.2 nM and the “% Degradation at 3 μM” value (ERα in MCF7 cells) was 93%.
Molecule `Oc1ccc2c(c1)OCCC(c1ccc(Cl)c(F)c1)=C2c1ccc(O[C@H]2CCN(CCCF)C2)cc1` [Example 97, 4-(4-chloro-3-fluoro-phenyl)-5-[4-[(3S)-1-(3-fluoropropyl)pyrrolidin-3-yl]oxyphenyl]-2,3-dihydro-1-benzoxepin-8-ol] has an IC50 [1] of 50 nM, an IC50 [2] of 358 nM and an IC50 [3] of 18 nM. For the same molecule, the DC50 (ERα in MCF7 cells) was 0.2 nM and the “% Degradation at 3 μM” value (ERα in MCF7 cells) was 94%.
Work on `Cc1cc(C2=C(c3ccc(O[C@H]4CCN(CCCF)C4)cc3)c3ccc(O)cc3OCC2)ccc1Cl` [Example 99, 4-(4-chloro-3-methyl-phenyl)-5-[4-[(3S)-1-(3-fluoropropyl)pyrrolidin-3-yl]oxyphenyl]-2,3-dihydro-1-benzoxepin-8-ol] yielded an IC50 [1] of 5 nM, an IC50 [2] of 36 nM and an IC50 [3] of 25 nM. For the same molecule, the DC50 (ERα in MCF7 cells) was 0.7 nM and the “% Degradation at 3 μM” value (ERα in MCF7 cells) was 89%.
With `Cc1cc(F)ccc1C1=C(c2ccc(O[C@H]3CCN(CCCF)C3)cc2)c2ccc(O)cc2OCC1` [Example 100, 4-(4-fluoro-2-methyl-phenyl)-5-[4-[(3S)-1-(3-fluoropropyl)pyrrolidin-3-yl]oxyphenyl]-2,3-dihydro-1-benzoxepin-8-ol] the IC50 [1] was 7 nM, the IC50 [2] was 54 nM and the IC50 [3] was 25 nM. The DC50 (ERα in MCF7 cells) was 0.2 nM and the “% Degradation at 3 μM” value (ERα in MCF7 cells) was 88%.
With `Oc1ccc2c(c1)C(c1ccc(O[C@H]3CCN(CCCF)C3)cc1)=C(c1ccc(Cl)cc1Cl)CCS2` [Example 182, 4-(2,4-dichlorophenyl)-5-[4-[(3S)-1-(3-fluoropropyl)pyrrolidin-3-yl]oxyphenyl]-2,3-dihydro-1-benzothiepin-7-ol] the DC50 (ERα in MCF7 cells) was 5 nM and the “% Degradation at 3 μM” value (ERα in MCF7 cells) was 79%.
With `O=S1(=O)CCC(c2ccc(Cl)cc2Cl)=C(c2ccc(O[C@H]3CCN(CCCF)C3)cc2)c2ccc(O)cc21` [Example 231, 4-(2,4-dichlorophenyl)-5-[4-[(3S)-1-(3-fluoropropyl)pyrrolidin-3-yl]oxyphenyl]-1,1-dioxo-2,3-dihydro-1λ^6-benzothiepin-8-ol] the DC50 (ERα in MCF7 cells) was 2 nM and the “% Degradation at 3 μM” value (ERα in MCF7 cells) was 96%.
